This is an account of results in patent US20130018033A1, “RAF INHIBITOR COMPOUNDS AND METHODS OF USE THEREOF” (ARRAY BIOPHARMA INC., priority 2009, published 2013).

Structures are written as SMILES. Read-outs that look alike come from different tables or passages of the source. Where only a bound is given, the exact number is not on record here.

Assay [1] relates to basal ERK1/2 phosphorylation in Malme-3M cells. The assay is described as follows: Cellular ERK 1/2 phosphorylation assay (Example A1). Type of assay: cell-based. The conditions noted are these: Homo sapiens, 1 hour incubation, pERK normalized to total ERK, read-out: P-ERK Malme3-M IC50. In a few lines:
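Malme-3M cells (24,000/well, RPMI-1640 with 10% FBS) were treated with compounds for 1 h at 37 °C, 1% DMSO final. Fixed, methanol-permeabilized cells were immunostained for pERK and total ERK and read by infrared fluorescence. pERK signal was normalized to total ERK.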

Assay [2] deals with subcutaneous LOX xenografts. The assay is described as follows: Tumor growth inhibition (LOX), Example A3. Type of assay: in vivo. To be noted: female nude mice, LOX xenograft. The method, then:
(§1) Female nude mice were implanted subcutaneously on the right flank with approximately 3.5×10^6 LOX cells in 100 μL PBS. Five to seven days later, tumors were measured and mice were randomized into groups of six with average tumor volume in each group of approximately 200 mm^3. Example 23 was dissolved in 80% PEG400/20% ethanol before dosing, and administered PO at a volume of 5 mL/kg. Dosing was vehicle alone on days 1, 2, 3 and 4; and Example 23 at 5 mg/kg on days 1, 2, 3 and 4. Animal weights and tumor volumes were measured using electronic calipers on day 5. Tumor volume was calculated using the formula: volume=(width^2×length)/2.

Assay [3] concerns the target T1, V600E full-length B-Raf (Homo sapiens, UniProt P15056, V600E).
T1 construct: 1 μM FSBA-MEK and 20 nM V600E full-length B-Raf; made in house; host or cells: Sf9 insect cells (baculovirus)
The experiment in a line: B-Raf IC50 assay (Example A). Type of assay: biochemical. The essentials: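 Sf9-expressed full-length V600E B-Raf (20 nM) phosphorylated 1 µM FSBA-modified wild-type MEK with 4 µM ATP plus [γ-33P]ATP in 25 mM Pipes pH 7.2, 100 mM KCl, 10 mM MgCl2. Enzyme and substrate were preincubated 15 min, and the reaction ran 60 min at 22 °C. It was TCA-quenched and filter-captured, and incorporated radioactivity was scintillation-counted.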

In assay [4] the test system is subcutaneous LOX xenografts. The assay is described as follows: Tumor growth inhibition (LOX), Example A2. The class given is in vivo. To be noted: female nude mice, LOX xenograft; for Tumor Volume (mm^3) Day 1: 10 mg/kg PO on days 1-4, Day 1; for Tumor Volume (mm^3) Day 3: 10 mg/kg PO on days 1-4, Day 3; for Tumor Volume (mm^3) Day 5: 10 mg/kg PO on days 1-4, Day 5. The protocol:
as §1, with “mm^3. Examples 3 and 28 were” for “mm^3. Example 23 was”, “and Examples 3 and 28” for “and Example 23”, “at 10” for “at 5”, “formula: volume=(width2×length)/2.” for “formula: volume=(width^2×length)/2.”

Where [5] appears, read: B-Raf V600E assay of Example A, read-out: IC50.
Setting [6] is: [γ-33P]ATP incorporation into FSBA-MEK, 4 μM ATP, read-out: BRAF V600E IC50.

T1 sequence (P15056 whole entry V600E): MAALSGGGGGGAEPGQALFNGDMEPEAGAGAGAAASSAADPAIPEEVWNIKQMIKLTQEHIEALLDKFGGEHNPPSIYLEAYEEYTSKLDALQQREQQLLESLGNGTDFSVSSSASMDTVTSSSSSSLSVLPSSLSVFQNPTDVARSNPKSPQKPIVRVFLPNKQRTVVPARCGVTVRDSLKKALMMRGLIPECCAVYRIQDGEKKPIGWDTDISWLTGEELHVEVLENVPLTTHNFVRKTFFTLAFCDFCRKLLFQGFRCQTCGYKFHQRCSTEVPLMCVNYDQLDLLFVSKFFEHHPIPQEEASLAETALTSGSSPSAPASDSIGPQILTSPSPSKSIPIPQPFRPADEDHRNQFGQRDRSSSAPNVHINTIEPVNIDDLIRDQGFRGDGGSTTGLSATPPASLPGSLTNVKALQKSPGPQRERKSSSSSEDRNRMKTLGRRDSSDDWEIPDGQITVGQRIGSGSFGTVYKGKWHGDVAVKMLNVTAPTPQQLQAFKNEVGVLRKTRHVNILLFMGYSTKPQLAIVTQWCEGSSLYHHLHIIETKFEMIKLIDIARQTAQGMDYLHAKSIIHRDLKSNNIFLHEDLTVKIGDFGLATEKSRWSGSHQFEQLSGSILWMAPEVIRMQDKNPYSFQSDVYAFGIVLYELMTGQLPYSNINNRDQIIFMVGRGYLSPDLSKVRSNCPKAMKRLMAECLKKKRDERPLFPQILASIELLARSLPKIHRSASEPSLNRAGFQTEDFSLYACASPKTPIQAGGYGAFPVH

Turning to `Nc1ncnc2c(C(=O)Nc3c(F)ccc(NS(=O)(=O)CCCF)c3F)cccc12` [Example 23, 4-Amino-quinazoline-8-carboxylic acid [2,6-difluoro-3-(3-fluoro-propane-1-sulfonylamino)-phenyl]-amide], the results for the IC50 in assay [1], in assay [3] (setting [5]) and in assay [3] (setting [6]) were 3.89 nM, less than 100 nM and 0.28 nM, respectively. Besides, the “Tumor Volume (mm^3) Day 1” value in assay [2] (5 mg/kg PO on days 1-4, Day 1) is 221.32 mm^3. Also, in assay [2] (5 mg/kg PO on days 1-4, Day 3), the “Tumor Volume (mm^3) Day 3” value came out at 280.81 mm^3. In assay [2] (5 mg/kg PO on days 1-4, Day 5), the “Tumor Volume (mm^3) Day 5” value was determined as 157.52 mm^3.
`CCCS(=O)(=O)Nc1ccc(F)c(NC(=O)c2cccc3c(N)ncnc23)c1C#N` [Example 28, 4-Amino-quinazoline-8-carboxylic acid [2-cyano-6-fluoro-3-(propane-1-sulfonylamino)-phenyl]-amide]: the IC50 (as a rule, the concentration at which inhibition is half-maximal) in assay [1] was found to be 14.4 nM. Also, in assay [4], the “Tumor Volume (mm^3) Day 1” value was determined as 190.71 mm^3, the “Tumor Volume (mm^3) Day 3” value is listed as 176.38 mm^3 and the “Tumor Volume (mm^3) Day 5” value was 219.31 mm^3. Besides, in assay [3] (setting [5]), the IC50 was less than 100 nM. Also, the IC50 in assay [3] (setting [6]) worked out at 0.11 nM.
As for `CCCS(=O)(=O)Nc1ccc(F)c(NC(=O)c2cccc3c(N)ncnc23)c1Cl` [Example 3, 4-Amino-quinazoline-8-carboxylic acid [2-chloro-6-fluoro-3-(propane-1-sulfonylamino)-phenyl]-amide], in assay [1], the concentration for half-maximal inhibition (IC50) was 7.23 nM. Besides, in assay [4], the “Tumor Volume (mm^3) Day 1” value came to 190.33 mm^3, the “Tumor Volume (mm^3) Day 3” value is listed as 151.33 mm^3 and the “Tumor Volume (mm^3) Day 5” value stood at 118.41 mm^3. The IC50 in assay [3] (setting [5]) was less than 100 nM. The same compound had a half-inhibitory concentration (IC50) in assay [3] (BRAF V600E IC50 (μM), [γ-33P]ATP incorporation into FSBA-MEK, 4 μM ATP) of 0.53 nM.
Regarding `CCCS(=O)(=O)Nc1cccc(NC(=O)c2cccc3c(N)ncnc23)c1C#N` [Example 30, 4-Amino-quinazoline-8-carboxylic acid [2-cyano-3-(propane-1-sulfonylamino)-phenyl]-amide], the IC50 in assay [1] was 7.1 nM; in assay [3] (setting [5]) it was less than 100 nM; in assay [3] (setting [6]), 0.08 nM.
In the case of `NC(=O)c1ccc(NS(=O)(=O)CCCF)c(F)c1NC(=O)c1ccnc2c(N)ncnc12` [Example 68, 4-Amino-pyrido[3,2-d]pyrimidine-8-carboxylic acid [6-carbamoyl-2-fluoro-3-(3-fluoro-propane-1-sulfonylamino)-phenyl]-amide], the figures for the IC50 in assay [1], in assay [3] (setting [5]) and in assay [3] (setting [6]) were 124 nM, less than 100 nM and 14.5 nM, respectively.
The matching figures for `CCCS(=O)(=O)Nc1ccc(C)c(NC(=O)c2cccc3c(N)ncnc23)c1` [Example 21, 4-Amino-quinazoline-8-carboxylic acid [2-methyl-5-(propane-1 sulfonylamino)-phenyl]-amide]: 1320 nM, less than 100 nM and 18.5 nM.
As for `CC(C)CS(=O)(=O)Nc1ccc(Cl)c(NC(=O)c2cccc3c(N)ncnc23)c1F` [Example 15, 4-Amino-quinazoline-8-carboxylic acid [6-chloro-2-fluoro-3-(2-methyl-propane-1-sulfonylamino)-phenyl]-amide], the values for the IC50 in assay [1], in assay [3] (setting [5]) and in assay [3] (setting [6]) were 6.08 nM, less than 100 nM and 0.5 nM, respectively.
In the case of `Cc1ncnc2c(C(=O)Nc3c(F)ccc(NS(=O)(=O)CCCF)c3F)cccc12` [Example 61, 4-Methyl-quinazoline-8-carboxylic acid [2,6-difluoro-3-(3-fluoro-propane-1-sulfonylamino)-phenyl]-amide], the IC50 is 116 nM in assay [1], less than 100 nM in assay [3] (setting [5]) and 19.3 nM in assay [3] (setting [6]).
`CCNc1ncnc2c(C(=O)Nc3c(F)c(F)cc(NS(=O)(=O)CCCF)c3F)cccc12` [Example 52, 4-Ethylamino-quinazoline-8-carboxylic acid [2,3,6-trifluoro-5-(3-fluoro-propane-1-sulfonylamino)-phenyl]-amide]: the results for the IC50 in assay [1], in assay [3] (setting [5]) and in assay [3] (setting [6]) were 5290 nM, less than 1000 nM and 290 nM, respectively.
